Data published in patent US10752624B2, “Kinase inhibitors” (Origenis GmbH, priority 2012, dated 2020).
pIC50: −log10 of the molar value.

Experiments:
LRRK2 = LRRK2 (Homo sapiens, UniProt Q5S007); assay: LRRK2-LRRK2 G2019S-Assay (LanthaScreen Eu Kinase Binding Assay); details: 5 nM LRRK2, 10 nM tracer 236, 2 nM EU-Anti-GST antibody, 1 h at RT; read-out: LRRK2 Activities: IC50
In short: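 Compound competition with Alexa Fluor 647 tracer 236 (10 nM) was measured after 1 h at room temperature, using 5 nM LRRK2 (wild type or mutant) bound to 2 nM Eu-anti-GST antibody. IC50 was derived from the acceptor/donor (665/615 nm) ratio using a variable-slope dose-response fit.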

SYK kinase = target: T1, SYK kinase (Homo sapiens, UniProt P43405); assay: SYK Assay (OMNIA Kinase Assay, SOX peptide fluorescence); type: biochemical; details: 1 mM ATP, 10 μM Omnia Peptide Substrate Tyr 7, 30° C., readings for 30 minutes; read-out: SYK Activities: IC50
T1 construct: purchased Invitrogen, Carlsbad
Method: In the assay OMNIA® KINASE ASSAY by Invitrogen Corporation (Carlsbad) the effect of invention of a compound on the phosphorylation is determined by measurement of fluorescence intensity of a chelation-enhanced fluorophore called SOX. Upon phosphorylation of the peptide by the kinase of interest, Mg2+ is chelated to form a bridge between the SOX moiety and the phosphate group that is transferred to the specific tyrosine on the peptide. The fluorescence intensity is directly proportional to the amount of peptide phosphorylation.
To the wells of an 384 well small volume plate (Greiner, Frickenhausen) are added (i) the compound under test in 5% DMSO/distilled water (2 μl), (ii) 16 μl of the master mix containing ATP, DTT, Kinase Reaction Buffer, Omina Peptide Substrate Tyr 7 resulting in a final concentration of 1 mM ATP, 0.2 mM DTT and 10 μM Peptide Substrate.
The Master Mix and the assay plate was incubated to reaction temperature before the measurement (30° C.). The reaction was started with addition of (iii) 2 μl 4 μg/ml SYK kinase (Invitrogen, Carlsbad). During measurement fluorescence intensity readings were collected using a TECAN M1000 at a wavelength of λex 360/λem 485 nm every 30 s for 30 minutes. The reaction velocity was plotted versus the inhibitor concentration to determine the IC50 using XLFit 5.0 (IDBS, Guildford) to fit to a sigmoidal dose response curve.

Chain of LRRK2 (Q5S007 970-2527 limits assumed): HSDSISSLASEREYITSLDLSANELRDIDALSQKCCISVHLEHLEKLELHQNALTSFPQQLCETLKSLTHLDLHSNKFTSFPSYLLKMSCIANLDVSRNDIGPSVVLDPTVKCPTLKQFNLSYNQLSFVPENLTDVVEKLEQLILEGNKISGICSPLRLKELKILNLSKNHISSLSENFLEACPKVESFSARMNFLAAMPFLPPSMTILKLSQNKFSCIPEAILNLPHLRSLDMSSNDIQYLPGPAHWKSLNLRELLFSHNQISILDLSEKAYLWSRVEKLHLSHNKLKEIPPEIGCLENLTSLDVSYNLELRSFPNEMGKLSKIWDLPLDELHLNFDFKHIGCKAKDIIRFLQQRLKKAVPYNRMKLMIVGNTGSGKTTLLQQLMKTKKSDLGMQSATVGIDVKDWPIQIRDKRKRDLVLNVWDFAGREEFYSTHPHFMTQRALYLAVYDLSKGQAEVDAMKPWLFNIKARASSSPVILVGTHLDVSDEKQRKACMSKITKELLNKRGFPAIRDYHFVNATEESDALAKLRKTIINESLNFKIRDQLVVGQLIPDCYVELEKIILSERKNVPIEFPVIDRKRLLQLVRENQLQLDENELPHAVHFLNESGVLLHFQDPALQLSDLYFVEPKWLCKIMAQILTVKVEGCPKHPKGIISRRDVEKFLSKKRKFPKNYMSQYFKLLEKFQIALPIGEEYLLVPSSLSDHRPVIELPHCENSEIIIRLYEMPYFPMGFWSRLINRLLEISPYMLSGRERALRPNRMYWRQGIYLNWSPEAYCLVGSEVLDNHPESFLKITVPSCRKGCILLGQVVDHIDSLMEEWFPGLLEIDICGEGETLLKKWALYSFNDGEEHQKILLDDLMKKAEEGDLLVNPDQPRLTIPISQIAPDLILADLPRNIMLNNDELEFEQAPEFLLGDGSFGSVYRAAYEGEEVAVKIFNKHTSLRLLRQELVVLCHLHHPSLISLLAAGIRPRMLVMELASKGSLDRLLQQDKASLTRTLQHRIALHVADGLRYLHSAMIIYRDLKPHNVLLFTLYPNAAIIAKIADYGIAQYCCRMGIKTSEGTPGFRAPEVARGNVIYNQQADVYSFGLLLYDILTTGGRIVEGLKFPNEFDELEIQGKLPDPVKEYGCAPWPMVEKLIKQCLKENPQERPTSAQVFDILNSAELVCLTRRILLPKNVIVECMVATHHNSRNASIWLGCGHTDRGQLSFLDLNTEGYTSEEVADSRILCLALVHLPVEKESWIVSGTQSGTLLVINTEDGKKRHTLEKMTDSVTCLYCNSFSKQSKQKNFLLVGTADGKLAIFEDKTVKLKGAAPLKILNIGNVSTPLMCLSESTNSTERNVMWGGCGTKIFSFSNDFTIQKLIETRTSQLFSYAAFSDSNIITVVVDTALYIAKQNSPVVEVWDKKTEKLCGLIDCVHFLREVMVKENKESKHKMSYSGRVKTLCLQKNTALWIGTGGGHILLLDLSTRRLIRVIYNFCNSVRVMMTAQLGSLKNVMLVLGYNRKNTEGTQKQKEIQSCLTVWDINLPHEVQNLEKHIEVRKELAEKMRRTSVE

Row | SMILES | pIC50 (LRRK2) | pIC50 (SYK kinase)
1 | CSc1ccc2nc(Nc3ccc(N4CCN(C(C)=O)CC4)cc3)c3[nH]ncc3c2c1 [Example 46, 1-(4-(4-((8-(methylthio)-3H-pyrazolo[3,4-c]quinolin-4-yl)amino)phenyl)piperazin-1-yl)ethan-1-one] | 7.00 to 8.00 | 6.00 to 7.00
2 | CSc1ccc2nc(Nc3ccc4c(c3)NC(=O)CC4)c3[nH]ncc3c2c1 [Example 47, 7-((8-(methylthio)-3H-pyrazolo[3,4-c]quinolin-4-yl)amino)-3,4-dihydroquinolin-2(1H)-one] | > 8.00 | > 8.00
3 | CSc1ccc2nc(Nc3ccc(CN(C)C)cc3)c3[nH]ncc3c2c1 [Example 48, N-(4-((dimethylamino)methyl)phenyl)-8-(methylthio)-3H-pyrazolo[3,4-c]quinolin-4-amine] | 7.00 to 8.00 | 7.00 to 8.00
4 | CSc1ccc2nc(Nc3ccc4c(c3)CN(C)C4)c3[nH]ncc3c2c1 [Example 49, N-(2-methylisoindolin-5-yl)-8-(methylthio)-3H-pyrazolo[3,4-c]quinolin-4-amine] | 7.00 to 8.00 | 6.00 to 7.00
5 | CS(=O)(=O)c1ccc2nc(Nc3ccc(N4CCOCC4)cc3)c3[nH]ncc3c2c1 [Example 55, 8-(methylsulfonyl)-N-(4-morpholinophenyl)-3H-pyrazolo[3,4-c]quinolin-4-amine] | 7.00 to 8.00 | > 8.00
6 | COc1ccc2nc(Nc3ccc4[nH]c(SC)nc4c3)c3n[nH]cc3c2c1 [Example 56, 8-methoxy-N-(2-(methylthio)-1H-benzo[d]imidazol-5-yl)-2H-pyrazolo[3,4-c]quinolin-4-amine] | 6.00 to 7.00 | 6.00 to 7.00
7 | COc1cccc2nc(Nc3ccc(-c4cnco4)cc3)c3[nH]ncc3c12 [Example 57, 9-methoxy-N-(4-(oxazol-5-yl)phenyl)-3H-pyrazolo[3,4-c]quinolin-4-amine] | 7.00 to 8.00 | 6.00 to 7.00
8 | CC(=O)N1CCN(c2ccc(Nc3nc4ccc(S(C)(=O)=O)cc4c4cn[nH]c34)cc2)CC1 [Example 62, 1-(4-(4-((8-(methylsulfonyl)-3H-pyrazolo[3,4-c]quinolin-4-yl)amino)phenyl)piperazin-1-yl)ethan-1-one] | 7.00 to 8.00 | > 8.00
9 | CS(=O)(=O)c1ccc2nc(Nc3ccc(C(=O)N4CCOCC4)cc3)c3[nH]ncc3c2c1 [Example 64, (4-((8-(methylsulfonyl)-3H-pyrazolo[3,4-c]quinolin-4-yl)amino)phenyl)(morpholino)methanone] | 7.00 to 8.00 | 7.00 to 8.00
10 | CN1CCN(C(=O)c2ccc(Nc3nc4ccc(S(C)(=O)=O)cc4c4cn[nH]c34)cc2)CC1 [Example 65, (4-methylpiperazin-1-yl)(4-((8-(methylsulfonyl)-3H-pyrazolo[3,4-c]quinolin-4-yl)amino)phenyl)methanone] | 7.00 to 8.00 | 7.00 to 8.00
11 | CS(=O)(=O)c1ccc2nc(Nc3ccc(C(N)=O)cc3)c3[nH]ncc3c2c1 [Example 66, 4-((8-(methylsulfonyl)-3H-pyrazolo[3,4-c]quinolin-4-yl)amino)benzamide] | 7.00 to 8.00 | 7.00 to 8.00
12 | CN1CCN(C2CCN(c3ccc(Nc4nc5ccc(S(C)(=O)=O)cc5c5cn[nH]c45)cc3)CC2)CC1 [Example 67, N-(4-(4-(4-methylpiperazin-1-yl)piperidin-1-yl)phenyl)-8-(methylsulfonyl)-3H-pyrazolo[3,4-c]quinolin-4-amine] | 7.00 to 8.00 | > 8.00
13 | CC(=O)N1CCN(c2ccc(Nc3nc4ccc(C)cc4c4cn[nH]c34)cc2)CC1 [Example 73, 1-(4-(4-((8-methyl-3H-pyrazolo[3,4-c]quinolin-4-yl)amino)phenyl)piperazin-1-yl)ethan-1-one] | 7.00 to 8.00 | 6.00 to 7.00
14 | Cc1ccc2nc(Nc3ccc(N4CCOCC4)cc3)c3[nH]ncc3c2c1 [Example 74, 8-methyl-N-(4-morpholinophenyl)-3H-pyrazolo[3,4-c]quinolin-4-amine] | 7.00 to 8.00 | 6.00 to 7.00
15 | CS(=O)(=O)c1ccc2nc(Nc3ccc(N4CCOC4=O)cc3)c3[nH]ncc3c2c1 [Example 76, 3-(4-((8-(methylsulfonyl)-3H-pyrazolo[3,4-c]quinolin-4-yl)amino)phenyl)oxazolidin-2-one] | 7.00 to 8.00 | 6.00 to 7.00
16 | CS(=O)(=O)c1ccc2nc(Nc3ccc4c(c3)NC(=O)CCC4)c3[nH]ncc3c2c1 [Example 77, 8-((8-(methylsulfonyl)-3H-pyrazolo[3,4-c]quinolin-4-yl)amino)-4,5-dihydro-1H-benzo[b]azepin-2(3H)-one] | > 8.00 | > 8.00

Row | SMILES | pIC50 (LRRK2) | pIC50 (SYK kinase)
17 | CS(=O)(=O)c1cccc(Nc2nc3ccc(S(C)(=O)=O)cc3c3cn[nH]c23)c1 [Example 78, 8-(methylsulfonyl)-N-(3-(methylsulfonyl)phenyl)-3H-pyrazolo[3,4-c]quinolin-4-amine] | 7.00 to 8.00 | 6.00 to 7.00
18 | COc1cccc2nc(Nc3ccc(N4CCN(C)CC4)nc3)c3[nH]ncc3c12 [Example 79, 9-methoxy-N-(6-(4-methylpiperazin-1-yl)pyridin-3-yl)-3H-pyrazolo[3,4-c]quinolin-4-amine] | 7.00 to 8.00 | 6.00 to 7.00
19 | CC(C)(C)N1CCN(c2ccc(Nc3nc4ccc(S(C)(=O)=O)cc4c4cn[nH]c34)cc2)CC1 [Example 80, N-(4-(4-(tert-butyl)piperazin-1-yl)phenyl)-8-(methylsulfonyl)-3H-pyrazolo[3,4-c]quinolin-4-amine] | 7.00 to 8.00 | 7.00 to 8.00
20 | CN1CCN(c2ccc(Nc3nc4ccc(S(C)(=O)=O)cc4c4cn[nH]c34)cn2)CC1 [Example 81, N-(6-(4-methylpiperazin-1-yl)pyridin-3-yl)-8-(methylsulfonyl)-3H-pyrazolo[3,4-c]quinolin-4-amine] | 7.00 to 8.00 | 6.00 to 7.00
21 | COc1ccc2nc(Nc3cnn(C)c3)c3n[nH]cc3c2c1 [Example 83, 8-methoxy-N-(1-methyl-1H-pyrazol-4-yl)-2H-pyrazolo[3,4-c]quinolin-4-amine] | 7.00 to 8.00 | 6.00 to 7.00
22 | COc1ccc2nc(Nc3cnn(C4CCOCC4)c3)c3n[nH]cc3c2c1 [Example 85, 8-methoxy-N-(1-(tetrahydro-2H-pyran-4-yl)-1H-pyrazol-4-yl)-2H-pyrazolo[3,4-c]quinolin-4-amine] | 7.00 to 8.00 | 6.00 to 7.00
23 | COc1ccc2nc(Nc3ccc(N4CCC(N5CCOCC5)CC4)cc3)c3n[nH]cc3c2c1 [Example 86, 8-methoxy-N-(4-(4-morpholinopiperidin-1-yl)phenyl)-2H-pyrazolo[3,4-c]quinolin-4-amine] | 6.00 to 7.00 | 6.00 to 7.00
24 | CS(=O)(=O)c1cccc2nc(Nc3ccc4c(c3)NC(=O)CCC4)c3[nH]ncc3c12 [Example 98, 8-((9-(methylsulfonyl)-3H-pyrazolo[3,4-c]quinolin-4-yl)amino)-4,5-dihydro-1H-benzo[b]azepin-2(3H)-one] | 7.00 to 8.00 | 6.00 to 7.00
25 | CS(=O)(=O)c1ccc2c(c1)nc(Nc1ccc(N3CCOCC3)cc1)c1[nH]ncc12 [Example 101, 7-(methylsulfonyl)-N-(4-morpholinophenyl)-3H-pyrazolo[3,4-c]quinolin-4-amine] | 7.00 to 8.00 | 6.00 to 7.00
26 | CS(=O)(=O)c1cccc2nc(Nc3cnn(C4CCOCC4)c3)c3[nH]ncc3c12 [Example 108, 9-(methylsulfonyl)-N-(1-(tetrahydro-2H-pyran-4-yl)-1H-pyrazol-4-yl)-3H-pyrazolo[3,4-c]quinolin-4-amine] | 7.00 to 8.00 | 6.00 to 7.00
27 | COCCn1cc(Nc2nc3ccc(OC)cc3c3c[nH]nc23)cn1 [Example 109, 8-methoxy-N-(1-(2-methoxyethyl)-1H-pyrazol-4-yl)-2H-pyrazolo[3,4-c]quinolin-4-amine] | 7.00 to 8.00 | 6.00 to 7.00
28 | COc1cccc2nc(Nc3cnn(C4CCN(C)CC4)c3)c3[nH]ncc3c12 [Example 118, 9-methoxy-N-(1-(1-methylpiperidin-4-yl)-1H-pyrazol-4-yl)-3H-pyrazolo[3,4-c]quinolin-4-amine] | > 8.00 | 7.00 to 8.00
29 | CS(=O)(=O)c1ccc2c(c1)nc(Nc1ccc3c(c1)NC(=O)CCC3)c1[nH]ncc12 [Example 119, 8-((7-(methylsulfonyl)-3H-pyrazolo[3,4-c]quinolin-4-yl)amino)-4,5-dihydro-1H-benzo[b]azepin-2(3H)-one] | 6.00 to 7.00 | 7.00 to 8.00
30 | CS(=O)(=O)c1ccc2c(c1)nc(Nc1cnn(C3CCOCC3)c1)c1[nH]ncc12 [Example 120, 7-(methylsulfonyl)-N-(1-(tetrahydro-2H-pyran-4-yl)-1H-pyrazol-4-yl)-3H-pyrazolo[3,4-c]quinolin-4-amine] | > 8.00 | 7.00 to 8.00
31 | CS(=O)(=O)c1ccc2nc(Nc3cnn(C4CCOCC4)c3)c3[nH]ncc3c2c1 [Example 143, 8-(methylsulfonyl)-N-(1-(tetrahydro-2H-pyran-4-yl)-1H-pyrazol-4-yl)-3H-pyrazolo[3,4-c]quinolin-4-amine] | > 8.00 | 7.00 to 8.00
